According to article PMC8480901 (PLoS ONE, 2021):
Several values for one entry are separate records, joined by “and”; a condition that tells them apart may be missing. Equal values may be shown once.

Tests used:
[1] = tested on: IL-8–activated human neutrophils; test: Chemotaxis of IL-8–activated human neutrophils (transwell, CellTiter Glo); type: cell-based; conditions: for Neutrophilic chemotaxis, RLU, Mean / Neutrophilic chemotaxis: % reduction / Neutrophilic chemotaxis, RLU, single replicates: IL-8; for Neutrophilic chemotaxis, RLU, single replicates: listed as Ref
Text: Buffy coat (blood sample fraction comprising white blood cells and platelets) from whole blood was obtained from a healthy adult volunteer at the Croatian Institute of Transfusion Medicine (CITM; Zagreb, Croatia). The CITM ethics committee approved the blood collection process, and the volunteer provided written informed consent prior to blood collection. Neutrophils were isolated from the buffy coat, an aliquot of which was used for cell counting via hematologic analyzer (X500i; Sysmex). […] The diluted buffy coat was drawn into sterile 50-mL syringes and incubated for 30 minutes at RT. Following incubation, the upper layer of leukocyte-rich plasma (35 mL) was decanted into a new sterile 50-mL conical centrifuge tube, carefully layered onto 15 mL of Lymphoprep (Axis-Shield Diagnostics, Ltd., Dundee, UK) and centrifuged at 400×g (brake turned off) for 35 minutes at RT. The supernatant and mononuclear ring were discarded, and the pellet was resuspended in 10 mL of cold sterile MilliQ water. […] Resuspended neutrophils were counted via Sysmex X500i hematologic analyzer.
All test compounds were reconstituted in DMSO (Sigma-Aldrich Chemie GmbH) to 100-mM stock concentrations, taking into consideration and correcting for salt and purity. A 30-mM stock solution of reference compound Sch527123 (MedChemExpress, Monmouth Junction, NJ, USA) was diluted to 10 mM with DMSO.
DMSO was used as vehicle. […] The reference compound was tested at concentrations of 0.003, 0.01, 0.03, 0.1, 0.3, 1, 3, and 10 μM. All compounds were tested in triplicate, and the final DMSO concentration was 0.1% per well.
Test and reference compound working solutions were then added (20 μL/well) for a 10-fold dilution to final testing concentrations. Compounds and cells were mixed by gentle pipetting, and the plate was pre-incubated for 30 minutes at RT with gentle mixing by pipetting.
Negative control wells received 180 μL of migration medium alone. To all wells, 20 μL of compound working solutions or DMSO vehicle was added. Once pre-incubation of cells with compounds was complete, the transwell inserts were carefully placed on the receiver plate, with caution to avoid air bubble formation, which could prevent cell migration. To the upper wells, 75 μL of cell suspension (375,000 cells/well) was added, taking care not to tear the membrane with pipette tips.
After incubation, the number of cells that migrated to the lower wells was quantified by removing the Transwell insert and adding 200 μL of CellTiter Glo reagent (CellTiter-Glo Luminescent Cell Viability Assay, Promega, Madison, WI, USA) to each lower well to quantify the amount of adenosine triphosphate (ATP) present, signaling the presence of metabolically active cells. The plate was incubated for 10 minutes in the dark at RT, followed by transferring 150 μL of solution into wells of a white 96-well plate (Lumitrac 200; Greiner Bio-One International GmbH, Kremsmunster, Austria).
For the chemotaxis and cytotoxicity evaluations, average relative light unit values were calculated from all untreated vehicle samples and, for each sample, percentage of vehicle value was calculated. The tested compound was considered cytotoxic if reduction from untreated vehicle was ≥20%.

[2] = tested on: methicillin-resistant Staphylococcus aureus wound infection; set-up: method as in PMID 32079232; conditions: MRSA wound infection mouse model; cited from earlier work
[3] = tested on: LPS-induced acute lung injury; conditions: cited from earlier work
[4] = tested on: murine RAW 264.7 macrophages; conditions: cited from earlier work

What does the source list for `CC[C@@H](Nc1c(Nc2cccc(C(=O)N(C)C)c2O)c(=O)c1=O)c1ccc(C)o1` [Sch527123]?
IL-8–induced chemotaxis of human neutrophils ([1]; 0.003 to 10 μM): dose-dependent inhibition; Neutrophilic chemotaxis, RLU, Mean ([1]; 0.003 µM): 136013 RLU; Neutrophilic chemotaxis: % reduction ([1]; 0.003 µM): -2.55%; Neutrophilic chemotaxis, RLU, single replicates ([1]; 0.003 µM): 126680 RLU and 141280 RLU and 140080 RLU; Neutrophilic chemotaxis, RLU, Mean ([1]; 0.01 µM): 145907 RLU; Neutrophilic chemotaxis: % reduction ([1]; 0.01 µM): -11%; Neutrophilic chemotaxis, RLU, single replicates ([1]; 0.01 µM): 164560 RLU and 147560 RLU and 125600 RLU; Neutrophilic chemotaxis, RLU, Mean ([1]; 0.03 µM): 131720 RLU; Neutrophilic chemotaxis: % reduction ([1]; 0.03 µM): 1.09%; Neutrophilic chemotaxis, RLU, single replicates ([1]; 0.03 µM): 131800 RLU and 131640 RLU; Neutrophilic chemotaxis, RLU, Mean ([1]; 0.1 µM): 87493 RLU; Neutrophilic chemotaxis: % reduction ([1]; 0.1 µM): 39%; Neutrophilic chemotaxis, RLU, single replicates ([1]; 0.1 µM): 83280 RLU and 83800 RLU and 95400 RLU; Neutrophilic chemotaxis, RLU, Mean ([1]; 0.3 µM): 34307 RLU; Neutrophilic chemotaxis: % reduction ([1]; 0.3 µM): 84%; Neutrophilic chemotaxis, RLU, single replicates ([1]; 0.3 µM): 34560 RLU and 36480 RLU and 31880 RLU; Neutrophilic chemotaxis, RLU, Mean ([1]; 1 µM): 20080 RLU; Neutrophilic chemotaxis: % reduction ([1]; 1 µM): 96%; Neutrophilic chemotaxis, RLU, single replicates ([1]; 1 µM): 21040 RLU and 22120 RLU and 17080 RLU; Neutrophilic chemotaxis, RLU, Mean ([1]; 3 µM): 18067 RLU; Neutrophilic chemotaxis: % reduction ([1]; 3 µM): 97%; Neutrophilic chemotaxis, RLU, single replicates ([1]; 3 µM): 19800 RLU and 19160 RLU and 15240 RLU; Neutrophilic chemotaxis, RLU, Mean ([1]; 10 µM): 19573 RLU; Neutrophilic chemotaxis: % reduction ([1]; 10 µM): 96%; Neutrophilic chemotaxis, RLU, single replicates ([1]; 10 µM): 21800 RLU and 20760 RLU and 16160 RLU

For `C=C[C@]1(C)C[C@@H](OC(=O)CSc2ccccc2N)[C@]2(C)[C@H](C)CC[C@]3(CCC(=O)[C@H]32)[C@@H](C)[C@@H]1O` [amphenmulin, 22-(2-amino-phenylsulfanyl)-22-deoxypleuromutilin], which “TNF-α, IL-6, and CCL-2 serum levels” value [2] is on record?
Its value is “significantly reduced”.

With `CC[C@H]1OC(=O)[C@H](C)[C@@H](O[C@H]2C[C@@](C)(OC)[C@@H](O)[C@H](C)O2)[C@H](C)[C@@H](O[C@@H]2O[C@H](C)C[C@H](N(C)C)[C@H]2O)[C@](C)(OC)C[C@@H](C)C(=O)[C@H](C)[C@@H](O)[C@]1(C)O` [clarithromycin] as the compound, how does the neutrophil recruitment ([3]; pretreatment in LPS-induced acute lung injury models) read?
The neutrophil recruitment was “significantly reduced”.

With `C=C[C@]1(C)C[C@@H](OC(=O)CSC(C)(C)CNC(=O)[C@H](N)C(C)C)[C@]2(C)[C@H](C)CC[C@]3(CCC(=O)[C@H]32)[C@@H](C)[C@@H]1O` [valnemulin] as the compound, how does the “LPS-induced production of inflammatory mediators, including nitric oxide, prostaglandin E2, TNF-α, and IL-6” value [4] read?
Its value is “significantly inhibited”.

What about the “LPS-induced pulmonary edema, accumulation of inflammatory cells in BALF, and increased inflammatory cytokines (eg, TNF-α and IL-6)” value ([3]; pretreated mice vs no-treatment control group) of the same compound?
Its value is “significantly attenuated”.
